Structures can show the parent of a compound that is named as a salt. Where two headings read alike, the source gives them in different places.
Columns and labels:
TNFα = experiment: cells; format: cell-based, human; details: read-out: EC50 TNF
IRAK4 enzyme = IRAK4 enzyme (Homo sapiens (Human), UniProt Q9NWZ3); experiment: biochemical; format: biochemical
[1] = Homo sapiens, Monocyte, LPS-stimulated human monocytes, TNFα content
[2] = IRAK4 enzyme, TR-FRET, 500 μM ATP
[3] = IRAK4 enzyme, TR-FRET (HTRF), 500 μM ATP
[4] = Homo sapiens, Monocyte, LPS-stimulated human monocytes, TNFα by TR-FRET

Chain of IRAK4 enzyme (Q9NWZ3 whole entry): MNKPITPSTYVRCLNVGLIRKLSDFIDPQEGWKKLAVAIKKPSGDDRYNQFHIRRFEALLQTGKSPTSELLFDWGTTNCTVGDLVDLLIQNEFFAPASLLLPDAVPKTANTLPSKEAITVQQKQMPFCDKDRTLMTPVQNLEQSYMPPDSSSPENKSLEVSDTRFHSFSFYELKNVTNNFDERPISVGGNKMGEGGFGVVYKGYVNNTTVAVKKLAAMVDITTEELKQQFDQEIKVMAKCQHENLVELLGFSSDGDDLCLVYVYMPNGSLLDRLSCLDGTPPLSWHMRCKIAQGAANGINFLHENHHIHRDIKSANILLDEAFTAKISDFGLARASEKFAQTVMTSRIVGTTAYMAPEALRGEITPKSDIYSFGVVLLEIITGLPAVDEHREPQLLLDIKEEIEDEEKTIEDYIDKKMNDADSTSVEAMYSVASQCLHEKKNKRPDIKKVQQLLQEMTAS

Row | Compound | EC50 (TNFα; [1]) [nM] | IC50 (IRAK4 enzyme; [2]) [nM] | IC50 (IRAK4 enzyme; [3]) [nM] | also measured
1 | N#Cc1ccc(NC(=O)c2cnc(-c3ccc4cc(C#N)cnn34)cc2N[C@H]2CCC[C@@H](O)C2)nc1 [Example 386, 6-(3-cyanopyrrolo[1,2-b]pyridazin-7-yl)-N-(5-cyanopyridin-2-yl)-4-(((1S,3R)-3-hydroxycyclohexyl)amino)nicotinamide] | 2380 | 8 |  | 
2 | CC(C)(O)[C@H](F)CNC(=O)c1cnc(-c2ccc3cc(C#N)cnn23)cc1Nc1ccc2cn[nH]c2c1 [Example 574, (R)-4-((1H-indazol-6-yl)amino)-6-(3-cyano-pyrrolo[1,2-b]pyridazin-7-yl)-N-(2-fluoro-3-hydroxy-3-methylbutyl) nicotinamide] | 57 |  | < 1 | 
3 | CC(=O)NC12CC(Nc3cc(-c4ccc5cc(C#N)cnn45)ncc3C(=O)NCC(F)F)(C1)C2 [Example 278, 4-((3-acetamido-bicyclo[1.1.1]pentan-1-yl)amino)-6-(3-cyano-pyrrolo[1,2-b]pyridazin-7-yl)-N-(2,2-difluoroethyl) nicotinamide] | 165 | 3 |  | 
4 | CCn1cc(Nc2cc(-c3ccc4cc(C#N)cnn34)ncc2C(=O)NC[C@@H](F)C(C)(C)O)cn1 [Example 56, (R)-6-(3-cyanopyrrolo[1,2-b]pyridazin-7-yl)-4-((1-ethyl-1H-pyrazol-4-yl)amino)-N-(2-fluoro-3-hydroxy-3-methylbutyl)nicotinamide] | 13 | < 1 |  | 
5 | CC(C)Nc1cc(-c2ccc3cc(C#N)cnn23)ncc1C(=O)NCc1ccc(=O)[nH]c1 [Example 157, 6-(3-cyanopyrrolo[1,2-b]pyridazin-7-yl)-4-(isopro-pylamino)-N-((6-oxo-1,6-dihydropyridin-3-yl)methyl) nicotinamide] | 501 | 23 |  | 
6 | CC(C)(O)[C@H](F)CNC(=O)c1cnc(-c2ccc3cc(C#N)cnn23)cc1Nc1cnn(C2CNCC2(F)F)c1 (single isomer, unassigned) [Example 869] |  | < 1 |  | EC50 (TNFα; LPS-stimulated human monocytes, TNFα by TR-FRET): 14 nM
7 | COC[C@@H]1CCN(c2ccc(Nc3cc(-c4ccc5cc(C#N)cnn45)ncc3C(=O)NC[C@@H](F)C(C)(C)O)cn2)C1 [Example 885, 6-(3-cyanopyrrolo[1,2-b]pyridazin-7-yl)-N-((R)-2-fluoro-3-hydroxy-3-methylbutyl)-4-((6-((R)-3-(methoxymethyl)pyrrolidin-1-yl)pyridin-3-yl)amino) nicotinamide] |  | 1 |  | EC50 (TNFα; [4]): 70 nM
8 | CC(C)(O)[C@H](F)CNC(=O)c1cnc(-c2ccc3cc(C#N)cnn23)cc1NC12CCC(O)(CC1)C2 [Example 403, (R)-6-(3-cyanopyrrolo[1,2-b]pyridazin-7-yl)-N-(2-fluoro-3-hydroxy-3-methylbutyl)-4-((4-hydroxybicyclo[2.2.1]heptan-1-yl)amino) nicotinamide] | 14 |  | < 1 | 
9 | CC(C)(O)[C@H](F)CNC(=O)c1cnc(-c2ccc3cc(C#N)cnn23)cc1N[C@]1(C)C[C@@H](O)C1 [Example 429, 6-(3-cyanopyrrolo[1,2-b]pyridazin-7-yl)-N-((R)-2-fluoro-3-hydroxy-3-methylbutyl)-4-(((1r,3R)-3-hydroxy-1-methylcyclo-butyl)amino)nicotinamide] | 36 |  | 1 | 
10 | CC(=O)N[C@H]1C[C@H](Nc2cc(-c3ccc4cc(C#N)cnn34)ncc2C(=O)NC[C@@H](F)C(C)(C)O)C1 [Example 456, 4-(((1r,3R)-3-acetamidocyclobutyl)amino)-6-(3-cyanopyrrolo[1,2-b]pyridazin-7-yl)-N-((R)-2-fluoro-3-hydroxy-3-methylbutyl)nicotinamide] | 394 |  | 1 | 
11 | COC(=O)N[C@H]1CC[C@H](Nc2cc(-c3ccc4cc(C#N)cnn34)ncc2C(=O)NC[C@@H](F)C(C)(C)O)CC1 [Example 314, methyl ((1R,4r)-4-((2-(3-cyanopyrrolo[1,2-b]pyridazin-7-yl)-5-(((R)-2-fluoro-3-hydroxy-3-methylbutyl)carbamoyl)pyridin-4-yl)amino)cyclo-hexyl)carbamate] | 20 | < 1 |  | 
12 | CC(C)(O)[C@H](F)CNC(=O)c1cnc(-c2ccc3cc(C#N)cnn23)cc1N[C@H]1CC[C@H](N)CC1 [Example 316, 4-(((1r,4R)-4-aminocyclohexyl)amino)-6-(3-cyanopyrrolo[1,2-b]pyridazin-7-yl)-N-((R)-2-fluoro-3-hydroxy-3-methylbutyl)nicotinamide hydrochloride] |  |  |  | EC50 (TNFα; Homo sapiens, Monocyte): 136 nM; IC50 (IRAK4 enzyme): < 1 nM
13 | CC(C)(O)[C@H](F)CNC(=O)c1cnc(-c2ccc3cc(C#N)cnn23)cc1NC1CC2(CCN2)C1 (stereo partly drawn) [Example 908, 4-(((4S,6r)-1-azaspiro[3.3]heptan-6-yl)amino)-6-(3-cyanopyrrolo[1,2-b]pyridazin-7-yl)-N-((R)-2-fluoro-3-hydroxy-3-methylbutyl)nicotinamide] |  | 6 |  | EC50 (TNFα; [4]): 611 nM
14 | CC(C)(O)[C@H](F)CNC(=O)c1cnc(-c2ccc3cc(C#N)cnn23)cc1NC12CCC(NC(=O)C(F)(F)F)(CC1)CC2 [Example 295, (R)-6-(3-cyanopyrrolo[1,2-b]pyridazin-7-yl)-N-(2-fluoro-3-hydroxy-3-methyl-butyl)-4-((4-(2,2,2-trifluoro-acetamido)bicyclo[2.2.2]octan-1-yl)amino) nicotinamide] | 38 | 1 |  | 
15 | CC(C)(O)[C@H](F)CNC(=O)c1cnc(-c2ccc3cc(C#N)cnn23)cc1Nc1ccc(-c2nnco2)cc1 [Example 627, (R)-4-((4-(1,3,4-oxadiazol-2-yl)phenyl)amino)-6-(3-cyanopyrrolo[1,2-b]pyridazin-7-yl)-N-(2-fluoro-3-hydroxy-3-methylbutyl)nicotinamide] | 30 |  | < 1 | 
16 | CC(C)(O)[C@H](F)CNC(=O)c1cnc(-c2ccc3cc(C#N)cnn23)cc1N[C@]1(C)CC[C@H](O)CC1 [Example 432, 6-(3-cyanopyrrolo[1,2-b]pyridazin-7-yl)-N-((R)-2-fluoro-3-hydroxy-3-methylbutyl)-4-(((1s,4S)-4-hydroxy-1-methylcyclohexyl)amino) nicotinamide] | 37 |  | < 1 | 
17 | N#Cc1cnn2c(-c3cc(N[C@H]4CCC[C@@H](O)C4)c(C(=O)NC4CC5(C4)CC(F)(F)C5)cn3)ccc2c1 [Example 427, 6-(3-cyanopyrrolo[1,2-b]pyridazin-7-yl)-N-(6,6-difluorospiro[3.3]heptan-2-yl)-4-(((1S,3R)-3-hydroxycyclohexyl)amino) nicotinamide] | 278 |  | 2 | 
18 | CC(C)(O)[C@H](F)CNC(=O)c1cnc(-c2ccc3cc(C#N)cnn23)cc1Nc1cnc(N2CCOCC2)nc1 [Example 671, (R)-6-(3-cyanopyrrolo[1,2-b]pyridazin-7-yl)-N-(2-fluoro-3-hydroxy-3-methylbutyl)-4-((2-morpholinopyrimidin-5-yl)amino)nicotinamide] | 22 |  | < 1 | 
19 | COC(=O)N[C@H]1C[C@@H](Nc2cc(-c3ccc4cc(C#N)cnn34)ncc2C(=O)NC[C@@H](F)C(C)(C)O)C1 [Example 457, methyl ((1S,3s)-3-((2-(3-cyanopyrrolo[1,2-b]pyridazin-7-yl)-5-(((R)-2-fluoro-3-hydroxy-3-methylbutyl)carbamoyl)pyridin-4-yl)amino)cyclo-butyl)carbamate] | 370 |  | 3 | 

From patent US10336762B2 (priority 2017, dated 2019)
